Results as given in US20180103668A1, “CYCLOHEXANECARBOXYLIC ACIDS FOR SELECTIVE TASTE MASKING” (INTERNATIONAL FLAVORS & FRAGRANCES INC., priority 2015, published 2018).

Columns and labels:
[1] = Sour taste-masking effect; conditions: 10 ppm in water; scale 0 to 10: 0=total masking, 2=intense masking, 5=moderate masking, 8=weak masking, 10=no masking; same in both lactic acid and citric acid
Method: (§1) A series of cyclohexanecarboxylic acid solutions in the following were prepared (10 ppm in water):
Lactic acid solution (0.09% by weight in water) and citric acid solution (0.07% by weight in water) were prepared and used, respectively, to evaluate the sour taste-masking effect of cyclohexanecarboxylic acids, which is expressed using an intensity scale of 0 to 10, where 0=total masking, 2=intense masking, 5=moderate masking, 8=weak masking and 10=no masking.

[2] = Bitter taste-masking effect; conditions: for Intensity Score (bitter taste-masking effect): 10 ppm in water, caffeine 0.07%, scale 0 to 10: 0=total masking, 2=intense masking, 5=moderate masking, 8=weak masking, 10=no masking; for bitter taste-masking effect (in words): 10 ppm, caffeine solution 0.07%
Method: as §1
Caffeine solution (0.07% by weight in water) was prepared and used to evaluate the bitter taste-masking effect of cyclohexanecarboxylic acids, which is expressed using an intensity scale of 0 to 10, where 0=total masking, 2=intense masking, 5=moderate masking, 8=weak masking and 10=no masking.

Row | Compound | Intensity Score (sour taste-masking effect) [1] | Intensity Score (bitter taste-masking effect) [2] | bitter taste-masking effect (in words) [2]
1 | O=C(/C=C/c1ccc(O)c(O)c1)O[C@@H]1[C@H](O)C[C@@](O)(C(=O)O)C[C@H]1OC(=O)/C=C/c1ccc(O)c(O)c1 [Formula IV, (1S,3R,4R,5R)-3,4-bis[[3-(3,4-dihydroxyphenyl)-1-oxo-2-propenyl]oxy]-1,5-dihydroxy-cyclohexanecarboxylic acid] | 8 | 2 | particularly intense and lasting bitter taste-masking effect
2 | O=C(/C=C/c1ccc(O)c(O)c1)OC1C[C@@](O)(C(=O)O)C[C@@H](OC(=O)/C=C/c2ccc(O)c(O)c2)[C@@H]1O (stereo partly drawn) [Formula V, (1α,3R,4α,5R)-3,5-bis[[3-(3,4-dihydroxyphenyl)-1-oxo-2-propen-1-yl]oxy]-1,4-dihydroxy-cyclohexanecarboxylic acid] | 8 | 3 | particularly intense and lasting bitter taste-masking effect
3 | O=C(/C=C/c1ccc(O)c(O)c1)O[C@H]1[C@H](O)C[C@](O)(C(=O)O)C[C@H]1OC(=O)/C=C/c1ccc(O)c(O)c1 [Formula VI, (1R,3R,4S,5R)-3,4-bis[[3-(3,4-dihydroxyphenyl)-1-oxo-2-propen-1-yl]oxy]-1,5-dihydroxy-cyclohexanecarboxylic acid] | 8 | 2 | particularly intense and lasting bitter taste-masking effect
